Values quoted from earlier work as cited in patent US20040120994A1, “Transdermal therapeutic system containing testorone and method for its production thereof” (priority 2001, published 2004).

Assays:
transport proteins = conditions: in the blood

Q: For `C[C@]12CC[C@H]3[C@@H](CCC4=CC(=O)CC[C@@]43C)[C@@H]1CC[C@@H]2O` [testosterone], which plasma half-life is on record?
A: The plasma half-life was “around 80 min”.

Q: And the “testosterone bound to transport proteins” value (transport proteins)?
A: The value was 98%.
